How the values were obtained:
A29G cells = assay: Growth in liquid non-fermentable medium with increasing DSF concentrations; assay type: cell-based, Saccharomyces cerevisiae; conditions: 48 h
Protocol: (§1) Exponentially growing cells were inoculated in fresh non-fermentable YPG or YPE media supplemented, or not, with increasing DSF concentrations.
(§2) More precisely, the shy1-G137R and Δcoa6 cells have been grown for 40 h in liquid medium containing 2% glycerol and 0.1% galactose as carbon source and increasing concentrations of DSF (100 nM to 6 μM). The A29G and fmc1Δ cells have been grown for 48 h in liquid medium containing 2% glycerol as carbon source and increasing concentrations of DSF (50 nM to 5 μM). The taz1Δ and sym1Δ cells have been grown for 48 h in rich liquid medium containing 2% ethanol/0.2% galactose and 2% glycerol/2% ethanol as a carbon source, respectively, and increasing concentrations of DSF (100 nM to 9 μM).

fmc1Δ cells = assay: as above; assay type: cell-based, Saccharomyces cerevisiae; conditions: 48 h
Protocol: as §1, §2

shy1-G137R cells = assay: as above; assay type: cell-based, Saccharomyces cerevisiae; conditions: 40 h, 2% glycerol and 0.1% galactose
Protocol: as §1, §2

sym1Δ cells = assay: as above; assay type: cell-based, Saccharomyces cerevisiae; conditions: 48 h
Protocol: as §1, §2

taz1Δ cells = assay: as above; assay type: cell-based, Saccharomyces cerevisiae; conditions: TAZ1 deletion, 48 h, 2% ethanol/0.2% galactose
Protocol: as §1, §2

[1] = test system: mitochondrial complex I in MELAS neuronal cybrid cells; assay: Complex I enzyme activity in MELAS cybrid cells; assay type: cell-based, human; conditions: FIG. 5; various concentrations, especially from 30 to 90 nM; 48 h exposure; low glucose medium (0.5 g/l)
Protocol: FIG. 5: Effect of DSF compared to untreated mutant cells (DMSO vehicle) after 48 h exposure on complex I enzyme activity in MELAS neuronal cybrid cells in low glucose medium (0.5 g/l).
The SH-SY5Y neuronal mutant cybrid cells, carrying the m.3243A>G with 98.6% mutant load responsible for MELAS syndrome, were cultured in standard DMEM high glucose media (4.5 g/L) or in low glucose (0.5 g/L), supplemented with 10% fetal bovine serum, 1% glutamine and 50 μg/ml uridine at 37° C. in presence of 5% CO2 as described elsewhere (Desquiret-Dumas et al. & Geffroy et al.). To optimize drug concentrations, cells were shifted to low glucose-medium 0.5 g/l (to force the cells to rely on OXPHOS rather than glycolysis) supplemented with various concentrations of DSF or of the vehicle (DMSO).
Complex I enzyme activity was measured at 37° C. on an UVmc2 spectrophotometer (SAFAS) as described (Desquiret-Dumas et al., 2012). For complex I enzyme activity, 0.5 million of cells were sonicated (6 cycles of 5 seconds) then incubated at 37° C. in the reaction medium (KH2PO4 100 mM, pH 7.4, KCN 1 mM, NaN3 2 mM, BSA 1 mg/ml, ubiquinone-1 0.1 mM and DCPIP 0.075 mM). The reaction was started by adding 0.15 mM NADH and the disappearing rate of DCPIP was measured at 600 nm for 2 minutes. The unspecific activity was determined in the presence of rotenone (5 μM).

TNFα-induced cell death = conditions: Zhao et al. 2000; cited from earlier work
[2] = Saccharomyces cerevisiae, read-out: toxic dose (IC50)
[3] = suppression of respiratory growth defect

CCN(CC)C(=S)SSC(=S)N(CC)CC [DSF, 1-(diethylthiocarbamoyldisulfanyl)-N,N-diethyl-methanethioamide]
optimal concentration (A29G cells; A29G mutation, suppression of respiratory growth defect, 2% glycerol): 150 to 200 nM
IC50 (A29G cells; [2]): 400 nM
optimal concentration (fmc1Δ cells; FMC1 deletion, suppression of respiratory growth defect, 2% glycerol): 1 µM
IC50 (fmc1Δ cells; [2]): 6 µM
IC50 (shy1-G137R cells; Saccharomyces cerevisiae, DSF 100 nM to 6 μM, read-out: toxic dose (IC50)): 1900 nM
optimal concentration (shy1-G137R cells; [3]): 300 nM
optimal concentration (sym1Δ cells; SYM1 deletion, suppression of respiratory growth defect, 2% glycerol/2% ethanol): 1 µM
IC50 (sym1Δ cells; [2]): 9 µM
IC50 (taz1Δ cells; Saccharomyces cerevisiae, DSF 100 nM to 9 μM, read-out: toxic dose (IC50)): 9 µM
optimal concentration (taz1Δ cells; [3]): 1 µM
effect on complex I activity [1]: increases complex I activity
effect on TNFα-induced cell death (TNFα-induced cell death): inhibits TNFα-induced cell death

Reference: patent publication US20220241223A1, “USE OF DISULFIRAM OR ITS DERIVATIVES FOR THE TREATMENT OF MITOCHONDRIAL DISEASES OR DYSFUNCTION” (Universite D'angers, priority 2019, published 2022)
